Reference: ChEMBL document CHEMBL4270599, “Synthesis of a 3'-C-ethynyl-β-d-ribofuranose purine nucleoside library: Discovery of C7-deazapurine analogs as potent antiproliferative nucleosides” (Eur J Med Chem, 2018)

Tests used:
Format in all cases: functional
[1] = system: BT-549; assay: Growth inhibition of human BT549 cells assessed as cell growth at 10^-4 M incubated for 48 hrs by sulforhodamine B assay relative to control; settings: BT-549, 48 h, read-out: Activity
[2] = system: HOP-92; assay: Growth inhibition of human HOP92 cells assessed as cell growth at 10^-4 M incubated for 48 hrs by sulforhodamine B assay relative to control; settings: HOP-92, 48 h, read-out: Activity
[3] = system: RPMI-8226; assay: Growth inhibition of human RPMI8226 cells assessed as cell growth at 10^-4 M incubated for 48 hrs by sulforhodamine B assay relative to control; settings: RPMI-8226, 48 h, read-out: Activity
[4] = system: SNB-19; assay: Growth inhibition of human SNB19 cells assessed as cell growth at 10^-4 M incubated for 48 hrs by sulforhodamine B assay relative to control; settings: SNB-19, 48 h, read-out: Activity
[5] = system: HL-60(TB); assay: Growth inhibition of human HL-60(TB) cells assessed as cell growth at 10^-4 M incubated for 48 hrs by sulforhodamine B assay relative to control; settings: HL-60, 48 h, read-out: Activity
[6] = system: 786-0; assay: Growth inhibition of human 786-0 cells assessed as cell growth at 10^-4 M incubated for 48 hrs by sulforhodamine B assay relative to control; settings: 786-0, 48 h, read-out: Activity
[7] = system: SK-MEL-2; assay: Growth inhibition of human SK-MEL-2 cells assessed as cell growth at 10^-4 M incubated for 48 hrs by sulforhodamine B assay relative to control; settings: SK-MEL-2, 48 h, read-out: Activity
[8] = system: EKVX; assay: Growth inhibition of human EKVX cells assessed as cell growth at 10^-4 M incubated for 48 hrs by sulforhodamine B assay relative to control; settings: read-out: Activity
[9] = system: UO-31; assay: Growth inhibition of human UO31 cells assessed as cell growth at 10^-5 M incubated for 48 hrs by sulforhodamine B assay relative to control; settings: UO-31, 48 h, read-out: Activity
[10] = system: SNB-75; assay: Growth inhibition of human SNB75 cells assessed as cell growth at 10^-5 M incubated for 48 hrs by sulforhodamine B assay relative to control; settings: SNB-75, 48 h, read-out: Activity
[11] = system: RXF 393; assay: Growth inhibition of human RXF393 cells assessed as cell growth at 10^-4 M incubated for 48 hrs by sulforhodamine B assay relative to control; settings: RXF 393, 48 h, read-out: Activity
[12] = system: SK-MEL-2; assay: Growth inhibition of human SK-MEL-2 cells assessed as cell growth at 10^-5 M incubated for 48 hrs by sulforhodamine B assay relative to control; settings: SK-MEL-2, 48 h, read-out: Activity
[13] = system: SK-MEL-28; assay: Growth inhibition of human SK-MEL-28 cells assessed as cell growth at 10^-4 M incubated for 48 hrs by sulforhodamine B assay relative to control; settings: SK-MEL-28, 48 h, read-out: Activity
[14] = system: HCC 2998; assay: Growth inhibition of human HCC2998 cells assessed as cell growth at 10^-4 M incubated for 48 hrs by sulforhodamine B assay relative to control; settings: HCC 2998, 48 h, read-out: Activity
[15] = system: OVCAR-8; assay: Growth inhibition of human OVCAR8 cells assessed as cell growth at 10^-5 M incubated for 48 hrs by sulforhodamine B assay relative to control; settings: OVCAR-8, 48 h, read-out: Activity
[16] = system: T47D; assay: Growth inhibition of human T47D cells assessed as cell growth at 10^-6 M incubated for 48 hrs by sulforhodamine B assay relative to control; settings: read-out: Activity
[17] = system: MDA-MB-468; assay: Growth inhibition of human MDA-MB-468 cells assessed as cell growth at 10^-5 M incubated for 48 hrs by sulforhodamine B assay relative to control; settings: MDA-MB-468, 48 h, read-out: Activity
[18] = system: HOP-62; assay: Growth inhibition of human HOP62 cells assessed as cell growth at 10^-4 M incubated for 48 hrs by sulforhodamine B assay relative to control; settings: HOP-62, 48 h, read-out: Activity
[19] = system: SNB-75; assay: Growth inhibition of human SNB75 cells assessed as cell growth at 10^-4 M incubated for 48 hrs by sulforhodamine B assay relative to control; settings: SNB-75, 48 h, read-out: Activity
[20] = system: UO-31; assay: Growth inhibition of human UO31 cells assessed as cell growth at 10^-4 M incubated for 48 hrs by sulforhodamine B assay relative to control; settings: UO-31, 48 h, read-out: Activity
[21] = system: SK-OV-3; assay: Growth inhibition of human SKOV3 cells assessed as cell growth at 10^-5 M incubated for 48 hrs by sulforhodamine B assay relative to control; settings: SK-OV-3, 48 h, read-out: Activity
[22] = system: LOX IMVI; assay: Growth inhibition of human LOXIMVI cells assessed as cell growth at 10^-4 M incubated for 48 hrs by sulforhodamine B assay relative to control; settings: read-out: Activity
[23] = system: LOX IMVI; assay: Growth inhibition of human LOXIMVI cells assessed as cell growth at 10^-6 M incubated for 48 hrs by sulforhodamine B assay relative to control; settings: read-out: Activity
[24] = system: Malme-3M; assay: Growth inhibition of human MALME-3M cells assessed as cell growth at 10^-4 M incubated for 48 hrs by sulforhodamine B assay relative to control; settings: read-out: Activity
[25] = system: NCI-H460; assay: Growth inhibition of human NCI-H460 cells assessed as cell growth at 10^-4 M incubated for 48 hrs by sulforhodamine B assay relative to control; settings: NCI-H460, 48 h, read-out: Activity
[26] = system: UACC-62; assay: Growth inhibition of human UACC62 cells assessed as cell growth at 10^-4 M incubated for 48 hrs by sulforhodamine B assay relative to control; settings: UACC-62, 48 h, read-out: Activity
[27] = system: MDA-MB-435; assay: Growth inhibition of human MDA-MB-435 cells assessed as cell growth at 10^-4 M incubated for 48 hrs by sulforhodamine B assay relative to control; settings: MDA-MB-435, 48 h, read-out: Activity
[28] = system: T47D; assay: Growth inhibition of human T47D cells assessed as cell growth at 10^-5 M incubated for 48 hrs by sulforhodamine B assay relative to control; settings: read-out: Activity
[29] = system: MDA-MB-468; assay: Growth inhibition of human MDA-MB-468 cells assessed as cell growth at 10^-4 M incubated for 48 hrs by sulforhodamine B assay relative to control; settings: MDA-MB-468, 48 h, read-out: Activity
[30] = system: HOP-92; assay: Growth inhibition of human HOP92 cells assessed as cell growth at 10^-5 M incubated for 48 hrs by sulforhodamine B assay relative to control; settings: HOP-92, 48 h, read-out: Activity
[31] = system: SK-MEL-5; assay: Growth inhibition of human SK-MEL-5 cells assessed as cell growth at 10^-5 M incubated for 48 hrs by sulforhodamine B assay relative to control; settings: SK-MEL-5, 48 h, read-out: Activity
[32] = system: EKVX; assay: Growth inhibition of human EKVX cells assessed as cell growth at 10^-5 M incubated for 48 hrs by sulforhodamine B assay relative to control; settings: read-out: Activity
[33] = system: T47D; assay: Growth inhibition of human T47D cells assessed as cell growth at 10^-4 M incubated for 48 hrs by sulforhodamine B assay relative to control; settings: read-out: Activity
[34] = system: COLO 205; assay: Growth inhibition of human COLO205 cells assessed as cell growth at 10^-6 M incubated for 48 hrs by sulforhodamine B assay relative to control; settings: COLO 205, 48 h, read-out: Activity

C#C[C@@]1(O)[C@@H](CO)O[C@@H](n2cc(F)c3c(N)ncnc32)[C@@H]1O showed a growth at 100 µM [1] of -42%, a growth at 100 µM [2] of -47% and a growth at 100 µM [3] of -21%. It also gave a growth at 100 µM [4] of -45%, a growth at 100 µM [5] of -32% and a growth at 100 µM [6] of -36%. For the same compound, the growth at 100 µM [7] was -36%, the growth at 100 µM [8] was -10% and the growth at 10 µM [9] was -36%. The growth at 10 µM [10] was -90%, the growth at 100 µM [11] was -49% and the growth at 10 µM [12] was -26%. For the same compound, the growth at 100 µM [13] was 19%, the growth at 100 µM [14] was -71% and the growth at 10 µM [15] was -12%. For the same compound, the growth at 1 µM [16] was -10%, the growth at 10 µM [17] was -57% and the growth at 100 µM [18] was -15%. It also gave a growth at 100 µM [19] of -86%, a growth at 100 µM [20] of -30% and a growth at 10 µM [21] of -26%. For the same compound, the growth at 100 µM [22] was -90%, the growth at 1 µM [23] was 4% and the growth at 100 µM [24] was -47%. It also gave a growth at 100 µM [25] of -38%, a growth at 100 µM [26] of -78% and a growth at 100 µM [27] of -63%. The growth at 10 µM [28] was -39%, the growth at 100 µM [29] was -68% and the growth at 10 µM [30] was -33%. The growth at 10 µM [31] was -89%, the growth at 10 µM [32] was 1% and the growth at 100 µM [33] was -77%. The growth at 1 µM [34] was 7%.

C#C[C@@]1(O)[C@@H](CO)O[C@@H](n2ccc3c(N)ncnc32)[C@@H]1O was tested, and the growth at 100 µM [1] was -95%, the growth at 100 µM [2] was -87% and the growth at 100 µM [3] was 2%. For the same compound, the growth at 100 µM [4] was -32%, the growth at 100 µM [5] was -38% and the growth at 100 µM [6] was -95%. It also gave a growth at 100 µM [7] of -34%, a growth at 100 µM [8] of -26% and a growth at 10 µM [9] of -55%. For the same compound, the growth at 10 µM [10] was -64%, the growth at 100 µM [11] was -92% and the growth at 10 µM [12] was -15%. For the same compound, the growth at 100 µM [13] was -47%, the growth at 100 µM [14] was -78% and the growth at 10 µM [15] was -32%. It also gave a growth at 1 µM [16] of 30%, a growth at 10 µM [17] of -58% and a growth at 100 µM [18] of -10%. It also gave a growth at 100 µM [19] of -42%, a growth at 100 µM [20] of -37% and a growth at 10 µM [21] of -20%. It also gave a growth at 100 µM [22] of -92%, a growth at 1 µM [23] of 40% and a growth at 100 µM [24] of -76%. For the same compound, the growth at 100 µM [25] was -13%, the growth at 100 µM [26] was -65% and the growth at 100 µM [27] was -76%. It also gave a growth at 10 µM [28] of -61%, a growth at 100 µM [29] of -62% and a growth at 10 µM [30] of -29%. For the same compound, the growth at 10 µM [31] was -95%, the growth at 10 µM [32] was -24% and the growth at 100 µM [33] was -71%. It also gave a growth at 1 µM [34] of 40%.
